According to US8658604B2, “Template-fixed beta-hairpin peptidomimetics with protease inhibitory activity” (Polyphor Ltd, priority 2005, dated 2014):
Where two headings read alike, the source gives them in different places. Where a SMILES comes first, the peptide text is derived from it. Bridges are numbered along the chain shown (N, C = ends). [ ]: non-standard residue; d: D form. Nle = CCCC[C@H](N)C(=O)O; Abu = CC[C@H](N)C(=O)O

Columns and labels:
HELA cells (Acc57) = assay: Cytotoxicity assay (MTT reduction), HELA cells; format: cell-based
Procedure: The cytotoxicity of the peptides to HELA cells (Acc57) and COS-7 cells (CRL-1651) was determined using the MTT reduction assay [see ref. 2 and 3, below]. Briefly the method was as follows: HELA cells and COS-7 cells were seeded at 7.0×10^3 and, respectively, 4.5×10^3 cells per well and grown in 96-well microtiter plates for 24 hours at 37° C. at 5% CO2. At this point, time zero (Tz) was determined by MTT reduction (see below). The supernatant of the remaining wells was discarded, and fresh medium and the peptides in serial dilutions of 12.5, 25 and 50 μM were pipetted into the wells. Each peptide concentration was assayed in triplicate. Incubation of the cells was continued for 48 hours at 37° C. at 5% CO2. Wells were then washed once with phosphate buffered saline (PBS) and subsequently 100 μl MTT reagent (0.5 mg/ml in medium RPMI1640 and, respectively, DMEM) were added to the wells. This was incubated at 37° C. for 2 hours and subsequently the medium was aspirated and 100 μl isopropanol were added to each well. The absorbance at 595 nm of the solubilized product was measured (OD595peptide). For each concentration averages were calculated from triplicates. The percentage of growth was calculated as follows: (OD595peptide-OD595Tz-OD595Empty well)/(OD595Tz-OD595Empty well)×100% and was plotted for each peptide concentration.
The LC 50 values (Lethal Concentration, defined as the concentration that kills 50% of the cells) were determined for each peptide by using the trend line function of EXCEL (Microsoft Office 2000) for the concentrations (50, 25, 12.5 and 0 μM), the corresponding growth percentages and the value −50, (=TREND(C50:C0,%50:%0,−50)).
The GI 50 (Growth Inhibition) concentrations were calculated for each peptide by using a trend line function for the concentrations (50, 25, 12.5 and 0 μg/ml), the corresponding percentages and the value 50, (=TREND (C50:C0,%50:%0,50).

[1] = biological target: Chymotrypsin, from human pancreas (Homo sapiens, UniProt P17538); assay: Enzymatic assay, chymotrypsin
Sequence of Chymotrypsin, from human pancreas (P17538 19-263): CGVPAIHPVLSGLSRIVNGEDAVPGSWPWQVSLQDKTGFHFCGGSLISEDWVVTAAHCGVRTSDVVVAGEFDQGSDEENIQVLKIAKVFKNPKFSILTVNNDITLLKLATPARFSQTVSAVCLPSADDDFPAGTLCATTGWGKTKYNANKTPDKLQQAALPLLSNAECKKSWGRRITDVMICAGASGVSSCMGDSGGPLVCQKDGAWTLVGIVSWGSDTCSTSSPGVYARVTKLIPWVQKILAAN

[2] = biological target: Coagulation Factor Xa, from uman plasma (Homo sapiens, UniProt P00742); assay: Enzymatic assay, coagulation factor Xa
Sequence of Coagulation Factor Xa, from uman plasma (P00742 235-488 limits assumed): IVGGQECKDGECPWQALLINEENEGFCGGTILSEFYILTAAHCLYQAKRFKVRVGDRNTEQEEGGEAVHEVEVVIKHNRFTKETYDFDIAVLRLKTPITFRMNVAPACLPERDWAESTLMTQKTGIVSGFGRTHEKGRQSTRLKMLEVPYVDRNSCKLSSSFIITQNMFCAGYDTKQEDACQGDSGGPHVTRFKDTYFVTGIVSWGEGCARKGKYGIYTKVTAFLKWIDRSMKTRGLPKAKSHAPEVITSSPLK
Sequence of Coagulation Factor Xa, from uman plasma (P00742 41-179 limits assumed): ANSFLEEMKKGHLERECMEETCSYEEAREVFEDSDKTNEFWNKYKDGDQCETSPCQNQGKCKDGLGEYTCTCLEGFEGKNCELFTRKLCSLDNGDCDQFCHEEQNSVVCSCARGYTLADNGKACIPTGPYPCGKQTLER

[3] = biological target: T1, CathepsinG, from human neutrophils (Homo sapiens, UniProt P08311); assay: Enzymatic assay, cathepsin G; conditions: for IC50: Cathepsin G IC50
T1 sequence (P08311 21-244): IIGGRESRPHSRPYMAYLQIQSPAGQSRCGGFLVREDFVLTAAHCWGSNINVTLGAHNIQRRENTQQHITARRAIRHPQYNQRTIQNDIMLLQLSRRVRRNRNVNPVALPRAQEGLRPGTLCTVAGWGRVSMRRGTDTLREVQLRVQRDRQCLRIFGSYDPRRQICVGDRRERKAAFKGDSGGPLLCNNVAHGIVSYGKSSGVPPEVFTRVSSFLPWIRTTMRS

Chymase, from human skin = biological target: T2, Chymase, from human skin (Homo sapiens, UniProt P23946); assay: Enzymatic assay, chymase
T2 sequence (P23946 22-247): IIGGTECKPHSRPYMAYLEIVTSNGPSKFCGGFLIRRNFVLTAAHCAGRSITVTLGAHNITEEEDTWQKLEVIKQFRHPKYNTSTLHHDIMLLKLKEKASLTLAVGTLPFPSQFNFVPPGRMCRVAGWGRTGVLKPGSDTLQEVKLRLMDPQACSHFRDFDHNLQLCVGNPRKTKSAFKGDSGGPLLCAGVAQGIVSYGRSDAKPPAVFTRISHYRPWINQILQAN

[4] = biological target: T3, Elastase from human neutrophils (Homo sapiens, UniProt P08246); assay: Enzymatic assay, elastase
T3 sequence (P08246 30-267): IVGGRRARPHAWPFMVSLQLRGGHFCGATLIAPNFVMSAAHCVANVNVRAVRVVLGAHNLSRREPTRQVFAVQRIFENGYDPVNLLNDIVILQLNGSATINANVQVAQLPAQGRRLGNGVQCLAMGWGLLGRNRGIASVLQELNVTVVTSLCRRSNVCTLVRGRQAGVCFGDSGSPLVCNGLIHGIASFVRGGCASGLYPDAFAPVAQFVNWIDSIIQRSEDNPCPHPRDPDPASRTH

[5] = biological target: Thrombin, from Human Plasma (Homo sapiens, UniProt P00734); assay: Enzymatic assay, thrombin
[6] = biological target: Trypsin, from human pancreas (Homo sapiens, UniProt P07477); assay: Enzymatic assay, trypsin; conditions: at 100 μM
[7] = biological target: Urokinase from human urine (Homo sapiens, UniProt P00749); assay: Enzymatic assay, urokinase
[8] = system: Tryptase, from human lung; assay: Enzymatic assay, tryptase; conditions: at 100 μM

IC50 ([1]; read-out: Chymotrypsin IC50)	IC50 ([4]; read-out: Elastase IC50)	Molecule	Cytotoxicity LC50/GI50 Hela cells (HELA cells (Acc57); Hela cells)	IC50 [1]	FXa at 100 μM % [2]	IC50 [3]	Chymase at 100 μM % (Chymase, from human skin)	IC50 ([4]; Elastase IC50)	Thrombin at 100 μM % [5]	Trypsin at 100 μM % [6]	Urokinase at 100 μM % [7]	Tryptase at 100 μM % [8]	Cathepsin G at 100 μM % ([3]; at 100 μM (stated in cell instead of IC50))	Chymotrypsin at 100 μM % ([1]; at 100 μM)	Cathepsin G at 100 μM % ([3]; at 100 μM)	Tryptase At 100 μM % [8]	Cytotoxicity LC50/GI50 Hela cells (HELA cells (Acc57))
		CCCC[C@@H]1NC(=O)[C@@H]2CCCN2C(=O)[C@H]2CCCN2C(=O)[C@H](Cc2ccc(O)cc2)NC(=O)[C@@H]2CSSC[C@H](NC1=O)C(=O)N[C@@H]([C@@H](C)O)C(=O)N[C@@H](C)C(=O)N[C@@H](CO)C(=O)N[C@@H]([C@@H](C)CC)C(=O)N1CCC[C@H]1C(=O)N1CC(NC(=O)c3ccccc3)C[C@H]1C(=O)N[C@@H](CCC(N)=O)C(=O)N2 (single isomer, unassigned) [Ex. 88]	73 µM	4.31 µM	3%	> 100 µM	0%	0.018 µM	0.2%	6.4%	96%	0.6%					
		CCCC[C@@H]1NC(=O)[C@@H]2CCCN2C(=O)[C@H]2CCCN2C(=O)[C@H](Cc2ccc(O)cc2)NC(=O)[C@@H]2CSSC[C@H](NC1=O)C(=O)N[C@@H]([C@@H](C)O)C(=O)N[C@@H](C)C(=O)N[C@@H](CO)C(=O)N[C@@H](CCC(C)C)C(=O)N1CCC[C@H]1C(=O)N1CCC[C@H]1C(=O)N[C@@H](CCC(N)=O)C(=O)N2 [Ex. 83] (HELM PEPTIDE1{[Nle].C.T.A.S.[CC(C)CC[C@H](N[*:1])C(=O)[*:2]].P.P.Q.C.Y.[dP].P}$PEPTIDE1,PEPTIDE1,2:R3-10:R3|PEPTIDE1,PEPTIDE1,1:R1-13:R2$$$V2.0)	12 µM	100 µM				0.043 µM									
		CCCC[C@@H]1NC(=O)[C@@H]2CCCN2C(=O)[C@H]2CCCN2C(=O)[C@H](Cc2ccc(O)cc2)NC(=O)[C@@H]2CSSC[C@H](NC1=O)C(=O)N[C@@H]([C@@H](C)O)C(=O)N[C@@H](C)C(=O)N[C@@H](CO)C(=O)N[C@@H](C1CCCCC1)C(=O)N1CCC[C@H]1C(=O)N1CCC[C@H]1C(=O)N[C@@H](CCC(N)=O)C(=O)N2 [Ex. 84] (HELM PEPTIDE1{[Nle].C.T.A.S.[O=C([C@@H](N[*:1])C1CCCCC1)[*:2]].P.P.Q.C.Y.[dP].P}$PEPTIDE1,PEPTIDE1,2:R3-10:R3|PEPTIDE1,PEPTIDE1,1:R1-13:R2$$$V2.0)	9 µM	17.1 µM	13.3%	20.2 µM	0%	0.018 µM	20.6%	10.8%	10.4%	4.2%					
		CCCC[C@@H]1NC(=O)[C@@H]2CCCN2C(=O)[C@H]2CCCN2C(=O)[C@H](Cc2ccccc2)NC(=O)[C@@H]2CSSC[C@H](NC1=O)C(=O)N[C@@H]([C@@H](C)O)C(=O)N[C@@H](C)C(=O)N[C@@H](CO)C(=O)N[C@@H]([C@@H](C)CC)C(=O)N1CCC[C@H]1C(=O)N1CCC[C@H]1C(=O)N[C@@H](CCC(N)=O)C(=O)N2 [Ex. 90] (HELM PEPTIDE1{[Nle].C.T.A.S.I.P.P.Q.C.F.[dP].P}$PEPTIDE1,PEPTIDE1,2:R3-10:R3|PEPTIDE1,PEPTIDE1,1:R1-13:R2$$$V2.0)	96 µM	33.1 µM	5.5%	67 µM	0%	0.021 µM	0%	5.2%	3.5%	5%					
		CCCC[C@@H]1NC(=O)[C@@H]2CCCN2C(=O)[C@H]2CCCN2C(=O)[C@H](CCC(N)=O)NC(=O)[C@@H]2CSSC[C@H](NC1=O)C(=O)N[C@@H]([C@@H](C)O)C(=O)N[C@@H](C)C(=O)N[C@@H](CO)C(=O)N[C@@H]([C@@H](C)CC)C(=O)N1CCC[C@H]1C(=O)N1CCC[C@H]1C(=O)N[C@@H](CCC(N)=O)C(=O)N2 [Ex. 91] (HELM PEPTIDE1{[Nle].C.T.A.S.I.P.P.Q.C.Q.[dP].P}$PEPTIDE1,PEPTIDE1,2:R3-10:R3|PEPTIDE1,PEPTIDE1,1:R1-13:R2$$$V2.0)	79 µM	48.1 µM	19.4%		4.7%	0.028 µM	13.5%	0%			45 at 100%				
		CCCC[C@@H]1NC(=O)[C@@H]2CCCN2C(=O)[C@@H](CC(=O)O)NC(=O)[C@H](Cc2ccc(O)cc2)NC(=O)[C@@H]2CSSC[C@H](NC1=O)C(=O)N[C@@H]([C@@H](C)O)C(=O)N[C@@H](C)C(=O)N[C@@H](CO)C(=O)N[C@@H]([C@@H](C)CC)C(=O)N1CCC[C@H]1C(=O)N1CCC[C@H]1C(=O)N[C@@H](CCC(N)=O)C(=O)N2 [Ex. 115] (HELM PEPTIDE1{[Nle].C.T.A.S.I.P.P.Q.C.Y.[dD].P}$PEPTIDE1,PEPTIDE1,2:R3-10:R3|PEPTIDE1,PEPTIDE1,1:R1-13:R2$$$V2.0)	51 µM	27.8 µM				0.038 µM									
		CCCC[C@@H]1NC(=O)[C@H](C(C)C)NC(=O)[C@H]2CCCN2C(=O)[C@H](Cc2ccc(O)cc2)NC(=O)[C@@H]2CSSC[C@H](NC1=O)C(=O)N[C@@H]([C@@H](C)O)C(=O)N[C@@H](C)C(=O)N[C@@H](CO)C(=O)N[C@@H]([C@@H](C)CC)C(=O)N1CCC[C@H]1C(=O)N1CCC[C@H]1C(=O)N[C@@H](CCC(N)=O)C(=O)N2 [Ex. 125] (HELM PEPTIDE1{[Nle].C.T.A.S.I.P.P.Q.C.Y.[dP].V}$PEPTIDE1,PEPTIDE1,2:R3-10:R3|PEPTIDE1,PEPTIDE1,1:R1-13:R2$$$V2.0)	37 µM	> 20 µM	0%	18.3 µM	4.8%	0.015 µM	0%	28.3%							
		CCCC[C@@H]1NC(=O)[C@@H]2CCCN2C(=O)[C@H]2CCCN2C(=O)[C@H](Cc2ccc(O)cc2)NC(=O)[C@@H]2CSSC[C@H](NC1=O)C(=O)N[C@@H]([C@@H](C)O)C(=O)N[C@@H](C)C(=O)N[C@@H](CO)C(=O)N[C@@H](CC1CCCCC1)C(=O)N1CCC[C@H]1C(=O)N1CCC[C@H]1C(=O)N[C@@H](CCC(N)=O)C(=O)N2 [Ex. 141] (HELM PEPTIDE1{[Nle].C.T.A.S.[Cha].P.P.Q.C.Y.[dP].P}$PEPTIDE1,PEPTIDE1,2:R3-10:R3|PEPTIDE1,PEPTIDE1,1:R1-13:R2$$$V2.0)	56 µM		15.3%		0%		0%	0%				72.9%	63.4 at 100%	44.5%	
107 µM	0.037 µM	Ex. 87: β-hairpin peptidomimetic of Table 1, template DPro-Pro (cyclo([Nle]C[Abu]ASIPPQCY); disulfide 2-10; also: DPro-Pro template, linkage not given here)															65 µM
